target: EZH2 (Homo sapiens (Human), UniProt Q15910); assay: Test method for EZH2 enzyme activity; assay type: biochemical; conditions: H3K27(21-44) and [3H]-SAM
Method: The compounds were dissolved in DMSO, formulated into 10 mM solutions and serially diluted with DMSO to obtain 100-fold the final concentration. 200 nL of the solutions of the compounds was transferred to a 384-well plate (Perkin Elmer, Cat. No. 6007299) by using Echo550. EZH2 (BPS, Cat. No. 51004) was diluted with 1×assay buffer (50 mM Tris-HCl 9.0, 0.01% Tween-20, 1 mM DTT) to 2-fold the final concentration (EZH2: 3 nM). A mixed solution of H3K27(21-44) and [3H]-SAM (PerkinElmer, Lot. No. 2146246) (H3K27(21-44): 200 nM, [3H]-SAM: 100 nM) was formulated. The EZH2 diluted solution was taken and added to the 384-well plate at 10 μL/well (10 μL of 1×assay buffer was added in the control group). The plate was sealed and then incubated at room temperature for 15 minutes. 10 μL of the mixed solution of H3K27 (21-44) and [3H]-SAM was added to each well. The plate was sealed and then incubated at room temperature for 60 minutes. 50 μM of SAM (Sigma, Cat. No. A7007) was formulated at low temperature and added to the 384-well plate at 10 μL/well. The sample was taken at 25 μL/well, transferred to a flashplate and incubated at room temperature for at least 1 hour. The flashplate was washed 3 times with a plate washing liquid (dH2O+0.1% Tween-20) and read by using Microbeta. The inhibition rate was calculated in Excel according to: inhibition rate (%)=(maximum valuepositive control−detection signal value)/(maximum valuepositive control−minimum valuenegative control)*100, and IC50 values were fitted by using XL-Fit.

Chain of EZH2 (Q15910 other isoform, or with tags, fused parts or gaps isoform Q15910-2): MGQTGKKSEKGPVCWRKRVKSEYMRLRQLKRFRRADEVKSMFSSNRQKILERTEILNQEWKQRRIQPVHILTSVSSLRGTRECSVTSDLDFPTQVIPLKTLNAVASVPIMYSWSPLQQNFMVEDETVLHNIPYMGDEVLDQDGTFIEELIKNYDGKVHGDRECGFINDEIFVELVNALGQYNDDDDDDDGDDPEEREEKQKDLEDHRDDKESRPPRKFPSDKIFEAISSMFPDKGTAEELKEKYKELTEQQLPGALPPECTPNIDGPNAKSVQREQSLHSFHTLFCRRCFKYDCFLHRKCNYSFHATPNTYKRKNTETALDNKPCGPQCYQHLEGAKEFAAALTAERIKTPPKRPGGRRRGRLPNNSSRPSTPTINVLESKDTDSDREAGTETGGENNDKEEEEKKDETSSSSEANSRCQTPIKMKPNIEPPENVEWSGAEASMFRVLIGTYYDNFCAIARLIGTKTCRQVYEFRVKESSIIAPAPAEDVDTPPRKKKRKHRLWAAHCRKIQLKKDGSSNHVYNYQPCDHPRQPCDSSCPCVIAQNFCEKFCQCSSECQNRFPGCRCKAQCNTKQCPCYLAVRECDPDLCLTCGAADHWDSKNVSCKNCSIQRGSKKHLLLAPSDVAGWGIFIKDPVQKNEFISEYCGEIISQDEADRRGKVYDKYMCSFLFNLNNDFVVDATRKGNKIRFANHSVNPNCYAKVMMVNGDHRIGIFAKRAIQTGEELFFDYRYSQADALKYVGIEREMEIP
Chain of EZH2 (O75530 2-441 partner): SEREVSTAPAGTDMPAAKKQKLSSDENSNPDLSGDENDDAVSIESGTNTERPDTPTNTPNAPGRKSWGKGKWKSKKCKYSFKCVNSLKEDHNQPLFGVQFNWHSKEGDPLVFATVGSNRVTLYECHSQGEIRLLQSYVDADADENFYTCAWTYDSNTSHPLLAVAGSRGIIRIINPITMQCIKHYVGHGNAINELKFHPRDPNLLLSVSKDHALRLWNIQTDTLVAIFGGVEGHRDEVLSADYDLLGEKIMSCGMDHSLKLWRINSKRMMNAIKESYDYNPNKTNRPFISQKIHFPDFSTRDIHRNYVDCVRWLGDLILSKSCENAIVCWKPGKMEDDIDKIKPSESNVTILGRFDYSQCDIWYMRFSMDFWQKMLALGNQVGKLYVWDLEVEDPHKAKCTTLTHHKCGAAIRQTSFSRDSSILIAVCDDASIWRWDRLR
Chain of EZH2 (Q15022 2-739 partner): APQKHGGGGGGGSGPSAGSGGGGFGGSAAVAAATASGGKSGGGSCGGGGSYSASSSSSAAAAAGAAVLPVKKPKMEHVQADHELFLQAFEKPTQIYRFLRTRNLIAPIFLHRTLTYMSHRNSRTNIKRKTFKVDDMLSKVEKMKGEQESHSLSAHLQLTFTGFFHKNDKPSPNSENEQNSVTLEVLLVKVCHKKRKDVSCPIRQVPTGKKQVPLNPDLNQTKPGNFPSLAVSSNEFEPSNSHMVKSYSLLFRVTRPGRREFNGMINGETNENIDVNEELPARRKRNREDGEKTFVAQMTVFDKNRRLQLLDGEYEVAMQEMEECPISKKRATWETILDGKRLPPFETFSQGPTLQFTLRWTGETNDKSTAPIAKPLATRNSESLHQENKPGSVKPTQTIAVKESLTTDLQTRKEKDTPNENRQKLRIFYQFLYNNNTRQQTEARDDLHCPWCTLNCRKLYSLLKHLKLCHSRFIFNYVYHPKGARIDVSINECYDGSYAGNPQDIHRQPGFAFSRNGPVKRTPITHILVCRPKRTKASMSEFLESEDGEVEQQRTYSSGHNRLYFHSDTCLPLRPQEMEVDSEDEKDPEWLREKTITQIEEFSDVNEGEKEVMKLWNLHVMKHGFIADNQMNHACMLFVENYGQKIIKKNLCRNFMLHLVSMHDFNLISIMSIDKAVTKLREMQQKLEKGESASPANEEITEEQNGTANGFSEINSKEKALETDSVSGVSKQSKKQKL
Chain of EZH2 (Q09028 2-425 partner): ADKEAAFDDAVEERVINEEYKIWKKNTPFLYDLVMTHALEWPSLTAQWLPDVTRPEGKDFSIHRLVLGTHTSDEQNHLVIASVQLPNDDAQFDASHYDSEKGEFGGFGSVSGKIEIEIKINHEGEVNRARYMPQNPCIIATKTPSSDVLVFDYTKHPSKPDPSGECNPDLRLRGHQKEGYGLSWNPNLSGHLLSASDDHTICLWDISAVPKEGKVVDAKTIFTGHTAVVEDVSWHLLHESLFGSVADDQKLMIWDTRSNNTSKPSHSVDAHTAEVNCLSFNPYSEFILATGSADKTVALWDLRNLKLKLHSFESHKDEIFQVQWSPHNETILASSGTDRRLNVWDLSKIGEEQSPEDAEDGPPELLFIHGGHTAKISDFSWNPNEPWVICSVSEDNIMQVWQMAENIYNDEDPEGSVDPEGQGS
Chain of EZH2 (Q6ZN18 whole entry partner): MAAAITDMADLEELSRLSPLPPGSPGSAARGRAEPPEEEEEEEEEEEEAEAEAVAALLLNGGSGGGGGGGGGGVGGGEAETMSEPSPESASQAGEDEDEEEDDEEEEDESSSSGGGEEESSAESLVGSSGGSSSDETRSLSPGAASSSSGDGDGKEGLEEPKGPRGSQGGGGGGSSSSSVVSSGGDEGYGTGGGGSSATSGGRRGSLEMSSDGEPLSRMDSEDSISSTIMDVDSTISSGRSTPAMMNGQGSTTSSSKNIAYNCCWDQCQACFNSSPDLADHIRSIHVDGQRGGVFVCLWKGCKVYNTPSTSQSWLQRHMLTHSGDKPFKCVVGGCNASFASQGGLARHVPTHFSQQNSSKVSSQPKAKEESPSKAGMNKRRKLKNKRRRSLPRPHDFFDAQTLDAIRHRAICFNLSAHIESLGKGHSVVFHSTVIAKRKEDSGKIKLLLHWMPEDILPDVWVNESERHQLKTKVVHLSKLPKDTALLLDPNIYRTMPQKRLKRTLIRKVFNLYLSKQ

| Compound | IC50 [nM] |
| --- | --- |
| CSc1cc(C)[nH]c(=O)c1CNC(=O)c1cc(Cl)c2c(c1C)OC(C)([C@H]1CC[C@@H](N3CC(N4CCCC4)C3)CC1)O2 (single isomer, unassigned) [Compound 43, isomer 2, 7-chloro-2,4-dimethyl-N-((6-methyl-4-(methylthio)-2-oxo-1,2-dihydropyridin-3-yl)methyl)-2-(4-(3-(pyrrolidin-1-yl)azetidin-1-yl)cyclohexyl)benzo[d][1,3]dioxole-5-carboxamide] | 0.42 |
| CSc1cc(C)[nH]c(=O)c1CNC(=O)c1cc(Cl)c2c(c1C)OC(C)(C1CCC(N[C@H]3C[C@H](O)C3)CC1)O2 (single isomer, unassigned) [Compound 45, isomer 1, 7-chloro-2-(4-((trans-3-hydroxycyclobutyl)amino)cyclohexyl)-2,4-dimethyl-N-((6-methyl-4-(methylthio)-2-oxo-1,2-dihydropyridin-3-yl)methyl)benzo[d][1,3]dioxole-5-carboxamide] | 0.28 |
| CSc1cc(C)[nH]c(=O)c1CNC(=O)c1cc(Cl)c2c(c1C)OC(C)([C@H]1CC[C@@H](N3CC[Si](C)(C)CC3)CC1)O2 (single isomer, unassigned) [Compound 49, isomer 1, 7-chloro-2-(4-(4,4-dimethyl-1,4-azasilinan-1-yl)cyclohexyl)-2,4-dimethyl-N-((6-methyl-4-(methylthio)-2-oxo-1,2-dihydropyridin-3-yl)methyl)benzo[d][1,3]dioxole-5-carboxamide] | 0.51 |
| [2H]C([2H])(NC(=O)c1cc(Cl)c2c(c1C)OC(C)([C@H]1CC[C@@H](CN3CCOCC3)CC1)O2)c1c(SC)cc(C)[nH]c1=O (single isomer, unassigned) [Compound 57, isomer 1, 7-chloro-2,4-dimethyl-N-((6-methyl-4-(methylthio)-2-oxo-1,2-dihydropyridin-3-yl)methyl-d2)-2-(4-(morpholinomethyl)cyclohexyl)benzo[d][1,3]dioxole-5-carboxamide] | 0.46 |
| CSc1cc(C)[nH]c(=O)c1CNC(=O)c1cc(Cl)c2c(c1C)OC(C)(C1CCC(NC3COC3)CC1)O2 (single isomer, unassigned) [Compound 61, isomer 1, 7-chloro-2,4-dimethyl-N-((6-methyl-4-(methylthio)-2-oxo-1,2-dihydropyridin-3-yl)methyl)-2-(4-(oxetan-3-ylamino)cyclohexyl)benzo[d][1,3]dioxole-5-carboxamide] | 0.52 |
| CSc1cc(C)[nH]c(=O)c1CNC(=O)c1cc(Cl)c2c(c1C)OC(C)(C1CCN(C(=O)C3CC(F)(F)C3)CC1)O2 (single isomer, unassigned; isomer 1) [Compound 11, isomer 1, 7-chloro-2-(1-(3,3-difluorocyclobutane-1-carbonyl)piperidin-4-yl)-2,4-dimethyl-N-((6-methyl-4-(methylthio)-2-oxo-1,2-dihydropyridin-3-yl)methyl)benzo[d][1,3]dioxole-5-carboxamide] | 0.73 |
| CSc1cc(C)[nH]c(=O)c1CNC(=O)c1cc(Cl)c2c(c1C)OC(C)(C1CCN(C(=O)C3CC(F)(F)C3)CC1)O2 (single isomer, unassigned; isomer 2) [Compound 11, isomer 2, 7-chloro-2-(1-(3,3-difluorocyclobutane-1-carbonyl)piperidin-4-yl)-2,4-dimethyl-N-((6-methyl-4-(methylthio)-2-oxo-1,2-dihydropyridin-3-yl)methyl)benzo[d][1,3]dioxole-5-carboxamide] | 0.88 |
| CSc1cc(C)[nH]c(=O)c1CNC(=O)c1cc(Cl)c2c(c1C)OC(C)(C1CCN(C(=O)c3csc(C)n3)CC1)O2 (stereo not shown) [Compound 21, 7-chloro-2,4-dimethyl-N-((6-methyl-4-(methylthio)-2-oxo-1,2-dihydropyridin-3-yl)methyl)-2-(1-(2-methylthiazole-4-carbonyl)piperidin-4-yl)benzo[d][1,3]dioxole-5-carboxamide] | 0.61 |
| CSc1cc(C)[nH]c(=O)c1CNC(=O)c1cc(Cl)c2c(c1C)OC(C)(C1CCC(N(C)C3CC(F)(F)C3)CC1)O2 (stereo not shown) [Compound 35, 7-chloro-2-(4-((3,3-difluorocyclobutyl)(methyl)amino)cyclohexyl)-2,4-dimethyl-N-((6-methyl-4-(methylthio)-2-oxo-1,2-dihydropyridin-3-yl)methyl)benzo[d][1,3]dioxole-5-carboxamide] | 0.59 |

Continued by falling IC50, values first:

| IC50 [nM] | Compound |
| --- | --- |
| 0.92 | CSc1cc(C)[nH]c(=O)c1CNC(=O)c1cc(Cl)c2c(c1C)OC(C)([C@H]1CC[C@@H](C(=O)N3CC(F)(F)C3)CC1)O2 (single isomer, unassigned; isomer 2) [Compound 47, isomer 2, 7-chloro-2-(4-(3,3-difluoroazetidine-1-carbonyl)cyclohexyl)-2,4-dimethyl-N-(di-deuterated(6-methyl-4-(methylthio)-2-oxo-1,2-dihydropyridin-3-yl)di-deuterated-methyl)benzo[d][1,3]dioxole-5-carboxamide] |
| 0.58 | CSc1cc(C)[nH]c(=O)c1CNC(=O)c1cc(Cl)c2c(c1C)OC(C)(C1CCN(C3CC3)CC1)O2 (stereo not shown) [Compound 24, 7-chloro-2-(1-cyclopropylpiperidin-4-yl)-2,4-dimethyl-N-((6-methyl-4-(methylthio)-2-oxo-1,2-dihydropyridin-3-yl)methyl)benzo[d][1,3]dioxole-5-carboxamide] |
| 0.58 | CSc1cc(C)[nH]c(=O)c1CNC(=O)c1cc(Cl)c2c(c1C)OC(C)(C1CCN(CC3(F)CC3)CC1)O2 (stereo not shown) [Compound 32, 7-chloro-2-(1-((1-fluorocyclopropyl)methyl)piperidin-4-yl)-2,4-dimethyl-N-((6-methyl-4-(methylthio)-2-oxo-1,2-dihydropyridin-3-yl)methyl)benzo[d][1,3]dioxole-5-carboxamide] |
| 0.57 | COC1CC(N2CCC(C3(C)Oc4c(Cl)cc(C(=O)NCc5c(SC)cc(C)[nH]c5=O)c(C)c4O3)CC2)C1 (stereo not shown) [Compound 33, 7-chloro-2-(1-(3-methoxycyclobutyl)piperidin-4-yl)-2,4-dimethyl-N-((6-methyl-4-(methylthio)-2-oxo-1,2-dihydropyridin-3-yl)methyl)benzo[d][1,3]dioxole-5-carboxamide] |
| 0.49 | [2H]C([2H])(NC(=O)c1cc(Cl)c2c(c1C)OC(C)([C@H]1CC[C@@H](CN3CCOCC3)CC1)O2)c1c(SC)cc(C)[nH]c1=O (single isomer, unassigned) [Compound 57, isomer 2, 7-chloro-2,4-dimethyl-N-((6-methyl-4-(methylthio)-2-oxo-1,2-dihydropyridin-3-yl)methyl-d2)-2-(4-(morpholinomethyl)cyclohexyl)benzo[d][1,3]dioxole-5-carboxamide] |
| 0.49 | [2H]C([2H])(NC(=O)c1cc(Cl)c2c(c1C)OC(C)(C1CCN(CC3CC(F)(F)C3)CC1)O2)c1c(SC)cc(C)[nH]c1=O (stereo not shown) [Compound 28, 7-chloro-2-(1-((3,3-difluorocyclobutyl)methyl)piperidin-4-yl)-2,4-dimethyl-N-((6-methyl-4-(methylthio)-2-oxo-1,2-dihydropyridin-3-yl)methyl-d2)benzo[d][1,3]dioxole-5-carboxamide] |
| 0.35 | CSc1cc(C)[nH]c(=O)c1CNC(=O)c1cc(Cl)c2c(c1C)OC(C)(C1CCC(N[C@H]3C[C@H](O)C3)CC1)O2 (single isomer, unassigned) [Compound 45, isomer 2, 7-chloro-2-(4-((trans-3-hydroxycyclobutyl)amino)cyclohexyl)-2,4-dimethyl-N-((6-methyl-4-(methylthio)-2-oxo-1,2-dihydropyridin-3-yl)methyl)benzo[d][1,3]dioxole-5-carboxamide] |
| 0.34 | CSc1cc(C)[nH]c(=O)c1CNC(=O)c1cc(Cl)c2c(c1C)OC(C)([C@H]1CC[C@@H](N3CC4CN(C)CC4C3)CC1)O2 (single isomer, unassigned) [Compound 42, isomer 1, 7-chloro-2,4-dimethyl-N-((6-methyl-4-(methylthio)-2-oxo-1,2-dihydropyridin-3-yl)methyl)-2-(4-(5-methylhexahydropyrrolo[3,4-c]pyrrol-2(1H)-yl)cyclohexyl)benzo[d][1,3]dioxole-5-carboxamide] |
| 0.25 | CSc1cc(C)[nH]c(=O)c1CNC(=O)c1cc(Cl)c2c(c1C)OC(C)(C1CCC(NC3COC3)CC1)O2 (single isomer, unassigned) [Compound 61, isomer 2, 7-chloro-2,4-dimethyl-N-((6-methyl-4-(methylthio)-2-oxo-1,2-dihydropyridin-3-yl)methyl)-2-(4-(oxetan-3-ylamino)cyclohexyl)benzo[d][1,3]dioxole-5-carboxamide] |
| 0.23 | CSc1cc(C)[nH]c(=O)c1CNC(=O)c1cc(Cl)c2c(c1C)OC(C)([C@H]1CC[C@@H](N3CC4CN(C)CC4C3)CC1)O2 (single isomer, unassigned) [Compound 42, isomer 2, 7-chloro-2,4-dimethyl-N-((6-methyl-4-(methylthio)-2-oxo-1,2-dihydropyridin-3-yl)methyl)-2-(4-(5-methylhexahydropyrrolo[3,4-c]pyrrol-2(1H)-yl)cyclohexyl)benzo[d][1,3]dioxole-5-carboxamide] |

— patent US20230365541A1, “INHIBITOR OF ENHANCER OF ZESTE HOMOLOGUE 2, AND USE THEREOF” (HAISCO PHARMACEUTICALS PTE. LTD., priority 2020, published 2023)
